Measurements published in patent US5494897A, “Endothelin antagonistic peptide” (Banyu Pharmaceutical Co., Ltd., priority 1993, dated 1996).
Numbered stars: 1 amine (or outer) side, 2 acyl side, 3 side chain; on linkers, the order of the positions; unused ones are H or OH. Square brackets hold non-standard residues; d marks the D form. Peptide text beside a SMILES is read from it. X1 = N#Cc1[nH]c2ccccc2c1C[C@@H](N[*:1])C(=O)[*:2]; dPen = CC(C)(S)[C@@H](N)C(=O)O

Experiments:
ETB receptor = biological target: T1, ETB receptor (Sus scrofa, UniProt P35463); experiment: Endothelin binding inhibition test (125I-endothelin-1, porcine cerebellum membrane); conditions: 1.1 μM test compound; porcine cerebellum membrane (ETB receptors)
T1 construct: ETB receptors of porcine cerebellum membrane suspension used in the present experiments; from tissue; host or cells: porcine cerebellum membrane preparation
T1 sequence (P35463 27-443): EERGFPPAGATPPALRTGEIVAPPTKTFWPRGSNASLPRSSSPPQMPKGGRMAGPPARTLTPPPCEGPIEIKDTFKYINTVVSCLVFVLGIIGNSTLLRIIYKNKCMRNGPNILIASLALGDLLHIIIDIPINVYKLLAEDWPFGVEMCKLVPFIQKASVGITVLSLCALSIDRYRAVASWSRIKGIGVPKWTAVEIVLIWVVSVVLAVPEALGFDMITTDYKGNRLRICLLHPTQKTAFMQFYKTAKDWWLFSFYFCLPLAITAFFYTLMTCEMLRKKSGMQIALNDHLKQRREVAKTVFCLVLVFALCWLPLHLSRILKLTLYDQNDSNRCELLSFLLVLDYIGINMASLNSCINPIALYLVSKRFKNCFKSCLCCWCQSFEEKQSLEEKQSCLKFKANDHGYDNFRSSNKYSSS
Experimental: The cerebellum of porcine was homogenized in a buffer solution of 10 mM MOPS, pH 7.4, at 4° C. by a polytron. To the homogenate, sucrose was added to a concentration of 20%, and the mixture was centrifuged at 1,000×g for 15 minutes, and the supernatant was further centrifuged at 10,000×g for 15 minutes. The supernatant thereof was further centrifuged at 90,000×g for 40 minutes. The membrane precipitate thereby obtained was suspended in a buffer solution of 5 mM HEPES/Tris, pH 7.4, at a concentration of 3.3 mg/ml. Then, 16 μl of this membrane suspension was added to 340 μl of 50 mM tris/HCl buffer, pH 7.4, containing […] calcium chloride, 10 μM magnesium chloride, 0.1 mM PMSF, 1 μM pepstatin A, 2 μM leupeptin, 1 mM 1,10-phenanthroline and 0.1% bovine serum albumin. […] These mixtures were incubated at 25° C. for 4 hours, then subjected to filtration on a glass filter GF/C and then washed with 5 mM HEPES/Tris, pH 7.4, containing 0.3% bovine serum albumin. […] [formula] Each test was performed in triplicate.
The test compounds are indicated by compound Nos.

[1] = tested on: human Girardi heart cells; experiment: Inhibition of endothelin-1-induced increase in intracellular calcium concentration (fura-2); assay type: cell-based; conditions: for inhibition of ET-1-induced increase in intracellular calcium concentration: 1.1 μM compound given 5 minutes before 100 nM ET-1, fura-2-loaded cells; for effect on the intracellular calcium concentration itself: compound alone, fura-2-loaded human Girardi heart cells
Experimental: Inhibitory activities of test compounds against endothelin-1-induced increase in intracellular calcium concentration of human Girardi heart cells
Antagonism of test compounds to endothelin-1-induced increase in intracellular calcium concentration was evaluated in human Girardi heart cells (Dainippon Seiyaku Co., Ltd.).
Cultured human Girardi heart cells in Flask were harvested using 0.25% trypsin and 0.02% EDTA. The collected cells were washed with Dulbecco's modification eagle medium containing 20 mM Hepes and 0.3% BSA (pH 7.4, D medium). Then the cells were suspended in D medium and incubated with 2 μM of fura-2 acetoxymethyl ester at 37° C. for 30 minutes. The cell suspensions were diluted with a 10-fold volume of D medium and incubated for 20 minutes. The fura-2-loaded cells were collected by centrifugation and resuspended in Krebs-Henseleit Hepes buffer (pH 7.4). The resultant suspension in a cuvette was continuously stirred at 37° C. throughout the following measurement process. Each test compound or vehicle was given 5 minutes before the addition of 100 nM ET-1, and fluorescence intensity at emission wavelength of 510 nm and excitation wavelength of 340 and 380 nm was monitored with a JASCO CAF-100 spectrofluorometer (Japan), and [Ca^2+ ]i values were calculated according to the reported method (G. Grynkiewicz et al., J. Biol. Chem. 260, 3440-3450 (1985)).

ETA receptors = biological target: T2, ETA receptors (Sus scrofa, UniProt Q29010); experiment: 125I-ET-1 binding inhibition to porcine aorta membrane suspension; conditions: 1.1 μM; porcine aorta membrane suspension containing a large amount of ETA receptors
T2 construct: porcine aorta membrane suspension containing a large amount of ETA receptors; from tissue; host or cells: porcine aorta membrane suspension
T2 sequence (Q29010 21-427): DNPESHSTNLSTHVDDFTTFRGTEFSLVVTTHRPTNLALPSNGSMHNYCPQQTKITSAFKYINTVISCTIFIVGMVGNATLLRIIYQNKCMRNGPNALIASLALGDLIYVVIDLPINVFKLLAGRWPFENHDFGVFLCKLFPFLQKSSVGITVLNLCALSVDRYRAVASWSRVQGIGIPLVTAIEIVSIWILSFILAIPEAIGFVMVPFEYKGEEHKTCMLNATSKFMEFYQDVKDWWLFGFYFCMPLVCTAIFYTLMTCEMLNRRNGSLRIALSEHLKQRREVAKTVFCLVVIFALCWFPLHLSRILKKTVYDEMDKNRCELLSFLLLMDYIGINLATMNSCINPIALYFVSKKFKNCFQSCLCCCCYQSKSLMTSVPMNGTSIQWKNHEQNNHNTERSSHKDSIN

CCCC[C@@H](NC(=O)[C@@H](Cc1c(C#N)[nH]c2ccccc12)NC(=O)[C@@H](NC(=O)N1C(C)CCCC1C)C(C)C)C(=O)O (stereo partly drawn) [Compound 1]
inhibition at 1.1 µM (ETB receptor): 96% | inhibition of ET-1-induced increase in intracellular calcium concentration [1]: 94% | effect on the intracellular calcium concentration itself [1]: no effect

CCCC[C@@H](NC(=O)[C@@H](Cc1c(C#N)[nH]c2ccccc12)NC(=O)[C@H](CC(C)C)NC(=O)N1C(C)CCCC1C)C(=O)O (stereo partly drawn) [Compound 2]
inhibition at 1.1 µM (ETB receptor): 99%

CCCC[C@@H](NC(=O)[C@@H](Cc1c(C#N)[nH]c2ccccc12)NC(=O)[C@H](CC(C)(C)C)NC(=O)N1C(C)CCCC1C)C(=O)OC (stereo partly drawn) [Compound 3]
inhibition at 1.1 µM (ETB receptor): 99%

CCCC[C@@H](NC(=O)[C@@H](Cc1c(C#N)[nH]c2ccccc12)NC(=O)[C@H](CC(C)(C)C)NC(=O)N1C(C)CCCC1C)C(=O)O (stereo partly drawn) [Compound 4]
inhibition at 1.1 µM (ETB receptor): 100%

CCC[C@@H](NC(=O)[C@@H](Cc1c(C#N)[nH]c2ccccc12)NC(=O)[C@@H](NC(=O)N1C(C)CCCC1C)C1CCCC1)C(=O)OC (stereo partly drawn) [Compound 7]
inhibition at 1.1 µM (ETB receptor): 96%

CCC[C@@H](NC(=O)[C@@H](Cc1c(C#N)[nH]c2ccccc12)NC(=O)[C@@H](NC(=O)N1C(C)CCCC1C)C1CCCC1)C(=O)O (stereo partly drawn) [Compound 8]
inhibition at 1.1 µM (ETB receptor): 96%

CCC[C@@H](NC(=O)[C@@H](Cc1c(C#N)[nH]c2ccccc12)NC(=O)[C@@H](NC(=O)N1C(C)CCCC1C)C1CCCC1)C(=O)NC (stereo partly drawn) [Compound 9]
inhibition at 1.1 µM (ETB receptor): 100%

COC(=O)C[C@H]1NC(=O)[C@@H](Cc2c(C#N)[nH]c3ccccc23)NC(=O)[C@H](CC(C)C)NC(=O)[C@@H](C(C)(C)SC)NC(=O)[C@@H]2CCCN2C1=O [Compound 10] (cyclo(L[X1][dD](OMe)P[dPen](Me)))
inhibition at 1.1 µM (ETB receptor): 65%

CSC(C)(C)[C@H]1NC(=O)[C@@H]2CCCN2C(=O)[C@@H](CC(=O)O)NC(=O)[C@@H](Cc2c(C#N)[nH]c3ccccc23)NC(=O)[C@H](CC(C)C)NC1=O [Compound 11] (cyclo(L[X1][dD]P[dPen](Me)))
inhibition at 1.1 µM (ETB receptor): 97% | inhibition of ET-1-induced increase in intracellular calcium concentration [1]: 69% | effect on the intracellular calcium concentration itself [1]: no effect

CC(C)C[C@@H]1NC(=O)[C@@H](C(C)C)NC(=O)[C@@H]2CCCN2C(=O)[C@@H](CC(=O)O)NC(=O)[C@@H](Cc2c(C#N)[nH]c3ccccc23)NC1=O [Compound 12] (cyclo(L[X1][dD]P[dV]))
inhibition at 1.1 µM (ETB receptor): 78%

cyclo(-DTrp-DAsp-Pro-DThg-Leu-) [compound 6, reference compound]
125I-endothelin-1 binding inhibition (ETB receptor): 11% | 125I-ET-1 binding inhibition (ETA receptors): 82%

cyclo(-DTrp-DCys(O3 Na)-Pro-DVal-Leu-) [compound 5, reference compound]
125I-endothelin-1 binding inhibition (ETB receptor): 0.6% | 125I-ET-1 binding inhibition (ETA receptors): 85%
